Read-outs that look alike come from different tables or passages of the source.
What was measured:
NCI-60 cancer panel = conditions: average across the cell lines of the concentration at which growth is inhibited 50%; unit in the High Conc. footnote; cited from earlier work
Ark myeloma cell line = test: CellTiter-Glo luminescent cell viability assay, Ark; assay type: cell-based, human; design: unit of the concentration uncertain
Experimental: (§1) The dosage of each derivative was set at 2, 0.2 and 0.02 mM. A cell culture medium control and 0.5% DMSO control was maintained in each experiment. The cell viability was tested each day over a period of five days using the CellTiter-Glo luminescent cell viability assay kit from Promega Co.
(§2) Cell Titer-Glo luminescent cell viability assay kit from Promega Co (Madison, Wis.) was used to determine cell growth inhibition by the various compounds tested. The kit determines cell viability by quantifying the amount of ATP present in the cell culture medium. Presence of ATP signals the presence of metabolically active cells (3). The intensity of luminescence was measured by a computerized luminometer (Promega, Co. Madison, Wis.). Each well was read five times within 30 minutes of adding Cell Titer-Glo reagent mixture.
(§3) Cells were contacted with the antineoplastic agents in ninety six well culture plates. The concentration of each neoplastic agent was maintained a constant. A cell culture medium control and 0.5% DMSO control were maintained in each set of experiments. The cell viability was tested every day using the CellTiter-Glo luminescent cell viability kit from Promega Co. (Madison, Wis.) for a period of five days.

CAG myeloma cell line = test: CellTiter-Glo luminescent cell viability assay, CAG; assay type: cell-based, human; design: unit of the concentration uncertain
Experimental: as §1, §2, §3

[1] = tested on: RPMI8226 myeloma cell line; test: CellTiter-Glo luminescent cell viability assay, RPMI8226; assay type: cell-based, human; design: unit of the concentration uncertain
Experimental: as §1
as §2, with “mixture. […]” for “mixture.”

U266 myeloma cell line = tested on: U266 myeloma cell line; design: cell viability (CellTiter-Glo luminescent assay): dose or concentration left out as unconfirmed; conditions: U266
Experimental: as §1
U266 cell line was one of 12 myeloma cell lines used in screening of anti-myeloma agents. In FIG. 10A, cells were treated with 14 ellipticine derivatives (0.5 mM) obtained from the DTP; control cells were untreated. Ellipticine derivatives are coded with NSC identifiers. For 5 days, cell viability was measured every 24 hours using CellTiter-Glo Luminescent Assay. […] In FIG. 10B, U266 cells, along with six other myeloma cell lines, were co-cultured in direct contact with human fetal bone mesenchymal cells and treated with EPED3 (0.5 mM and 2 mM) or Velcade (0.5 mM); control cells were untreated. Cell proliferation was assessed by MTT assay every 24 hours for 5 days. […] Error bars indicate standard deviation.
as §2, §3

CSc1nc[nH]c1C(N)=S [NSC 684041]
Mean GI50 (NCI-60 cancer panel): −4.11 log^10 molar

O=C(/C=C/c1ccc(Cl)c(Cl)c1)c1ccc(Cl)cc1Cl [NSC 640531]
Mean GI50 (NCI-60 cancer panel): −4.99 log^10 molar

Cc1ccc(S(=O)(=O)N=NC=C2c3ccccc3N(O)c3ccccc32)cc1 [NSC 627891]
Mean GI50 (NCI-60 cancer panel): −5.43 log^10 molar

O=C1N(c2ccc(Cl)cc2)C(=O)C2(SC=NN2Cc2ccccc2)N1c1ccc(Cl)cc1 (stereo not drawn) [NSC 630740]
Mean GI50 (NCI-60 cancer panel): −4.26 log^10 molar

CN(C)CC1CCCCCC(Br)C1=O.O=C(O)C(=O)O (stereo not drawn) [NSC 130789]
Mean GI50 (NCI-60 cancer panel): −4.96 log^10 molar

Cc1c2ccncc2c(C)c2c1[nH]c1ccccc12 [Ellipticine, 5,11-Dimethyl-6H-Pyridol[4,3]carbazole]
cell viability (CellTiter-Glo luminescent assay) (Ark myeloma cell line; 0.02 (unit uncertain), Day 1): 120,709
cell viability (CellTiter-Glo luminescent assay) (Ark myeloma cell line; 0.02 (unit uncertain), Day 2): 208,608
cell viability (CellTiter-Glo luminescent assay) (Ark myeloma cell line; 0.02 (unit uncertain), Day 3): 268,420
cell viability (CellTiter-Glo luminescent assay) (Ark myeloma cell line; 0.02 (unit uncertain), Day 4): 802,063
cell viability (CellTiter-Glo luminescent assay) (Ark myeloma cell line; 0.02 (unit uncertain), Day 5): 1,049,792
cell viability (CellTiter-Glo luminescent assay) (Ark myeloma cell line; 0.2 (unit uncertain), Day 1): 125,251
cell viability (CellTiter-Glo luminescent assay) (Ark myeloma cell line; 0.2 (unit uncertain), Day 2): 230,950
cell viability (CellTiter-Glo luminescent assay) (Ark myeloma cell line; 0.2 (unit uncertain), Day 3): 331,985
cell viability (CellTiter-Glo luminescent assay) (Ark myeloma cell line; 0.2 (unit uncertain), Day 4): 877,082
cell viability (CellTiter-Glo luminescent assay) (Ark myeloma cell line; 0.2 (unit uncertain), Day 5): 1,183,902
cell viability (CellTiter-Glo luminescent assay) (Ark myeloma cell line; 2 (unit uncertain), Day 1): 86,010
cell viability (CellTiter-Glo luminescent assay) (Ark myeloma cell line; 2 (unit uncertain), Day 2): 98,439
cell viability (CellTiter-Glo luminescent assay) (Ark myeloma cell line; 2 (unit uncertain), Day 3): 70,824
cell viability (CellTiter-Glo luminescent assay) (Ark myeloma cell line; 2 (unit uncertain), Day 4): 44,913
cell viability (CellTiter-Glo luminescent assay) (Ark myeloma cell line; 2 (unit uncertain), Day 5): 10,996
cell viability (CellTiter-Glo luminescent assay) (CAG myeloma cell line; 0.02 (unit uncertain), Day 1): 200,429
cell viability (CellTiter-Glo luminescent assay) (CAG myeloma cell line; 0.02 (unit uncertain), Day 2): 557,030
cell viability (CellTiter-Glo luminescent assay) (CAG myeloma cell line; 0.02 (unit uncertain), Day 3): 1,243,718
cell viability (CellTiter-Glo luminescent assay) (CAG myeloma cell line; 0.02 (unit uncertain), Day 4): 2,718,974
cell viability (CellTiter-Glo luminescent assay) (CAG myeloma cell line; 0.02 (unit uncertain), Day 5): 4,443,641
cell viability (CellTiter-Glo luminescent assay) (CAG myeloma cell line; 0.2 (unit uncertain), Day 1): 196,263
cell viability (CellTiter-Glo luminescent assay) (CAG myeloma cell line; 0.2 (unit uncertain), Day 2): 541,300
cell viability (CellTiter-Glo luminescent assay) (CAG myeloma cell line; 0.2 (unit uncertain), Day 3): 1,117,650
cell viability (CellTiter-Glo luminescent assay) (CAG myeloma cell line; 0.2 (unit uncertain), Day 4): 2,568,444
cell viability (CellTiter-Glo luminescent assay) (CAG myeloma cell line; 0.2 (unit uncertain), Day 5): 4,443,292
cell viability (CellTiter-Glo luminescent assay) (CAG myeloma cell line; 2 (unit uncertain), Day 1): 136,450
cell viability (CellTiter-Glo luminescent assay) (CAG myeloma cell line; 2 (unit uncertain), Day 2): 200,722
cell viability (CellTiter-Glo luminescent assay) (CAG myeloma cell line; 2 (unit uncertain), Day 3): 234,414
cell viability (CellTiter-Glo luminescent assay) (CAG myeloma cell line; 2 (unit uncertain), Day 4): 308,480
cell viability (CellTiter-Glo luminescent assay) (CAG myeloma cell line; 2 (unit uncertain), Day 5): 281,302
cell viability (CellTiter-Glo luminescent assay) ([1]; 0.02 (unit uncertain), Day 1): 110,290
cell viability (CellTiter-Glo luminescent assay) ([1]; 0.02 (unit uncertain), Day 2): 244,140
cell viability (CellTiter-Glo luminescent assay) ([1]; 0.02 (unit uncertain), Day 3): 390,151
cell viability (CellTiter-Glo luminescent assay) ([1]; 0.02 (unit uncertain), Day 4): 898,067
cell viability (CellTiter-Glo luminescent assay) ([1]; 0.02 (unit uncertain), Day 5): 966,857
cell viability (CellTiter-Glo luminescent assay) ([1]; 0.2 (unit uncertain), Day 1): 107,014
cell viability (CellTiter-Glo luminescent assay) ([1]; 0.2 (unit uncertain), Day 2): 235,145
cell viability (CellTiter-Glo luminescent assay) ([1]; 0.2 (unit uncertain), Day 3): 355,794
cell viability (CellTiter-Glo luminescent assay) ([1]; 0.2 (unit uncertain), Day 4): 774,806
cell viability (CellTiter-Glo luminescent assay) ([1]; 0.2 (unit uncertain), Day 5): 921,077
cell viability (CellTiter-Glo luminescent assay) ([1]; 2 (unit uncertain), Day 1): 87,440
cell viability (CellTiter-Glo luminescent assay) ([1]; 2 (unit uncertain), Day 2): 115,263
cell viability (CellTiter-Glo luminescent assay) ([1]; 2 (unit uncertain), Day 3): 110,776
cell viability (CellTiter-Glo luminescent assay) ([1]; 2 (unit uncertain), Day 4): 126,944
cell viability (CellTiter-Glo luminescent assay) ([1]; 2 (unit uncertain), Day 5): 85,699
cell viability (CellTiter-Glo luminescent assay) (U266 myeloma cell line; 0.02, Day 1): 31,950
cell viability (CellTiter-Glo luminescent assay) (U266 myeloma cell line; 0.02, Day 2): 47,812
cell viability (CellTiter-Glo luminescent assay) (U266 myeloma cell line; 0.02, Day 3): 66,571
cell viability (CellTiter-Glo luminescent assay) (U266 myeloma cell line; 0.02, Day 4): 115,083
cell viability (CellTiter-Glo luminescent assay) (U266 myeloma cell line; 0.02, Day 5): 152,839
cell viability (CellTiter-Glo luminescent assay) (U266 myeloma cell line; 0.2, Day 1): 32,490
cell viability (CellTiter-Glo luminescent assay) (U266 myeloma cell line; 0.2, Day 2): 47,622
cell viability (CellTiter-Glo luminescent assay) (U266 myeloma cell line; 0.2, Day 3): 62,648
cell viability (CellTiter-Glo luminescent assay) (U266 myeloma cell line; 0.2, Day 4): 106,989
cell viability (CellTiter-Glo luminescent assay) (U266 myeloma cell line; 0.2, Day 5): 132,439
cell viability (CellTiter-Glo luminescent assay) (U266 myeloma cell line; 2, Day 1): 23,680
cell viability (CellTiter-Glo luminescent assay) (U266 myeloma cell line; 2, Day 2): 31,682
cell viability (CellTiter-Glo luminescent assay) (U266 myeloma cell line; 2, Day 3): 33,129
cell viability (CellTiter-Glo luminescent assay) (U266 myeloma cell line; 2, Day 4): 40,656
cell viability (CellTiter-Glo luminescent assay) (U266 myeloma cell line; 2, Day 5): 38,403

Cc1cc2[nH]c3c(C#N)c(-c4ccccc4)c(N=Nc4cccc(C(F)(F)F)c4)c(=O)n3c2cc1C [NSC 699959]
Mean GI50 (NCI-60 cancer panel): −4.53 log^10 molar

O=C1/C(=C/C=C/c2ccccc2)CCC1CNc1ccccc1 (stereo not drawn) [NSC 661238]
Mean GI50 (NCI-60 cancer panel): −4.47 log^10 molar

C=C1C(OC(=O)/C=C/c2ccccc2)CC(OC(C)=O)C2(C)C1CC1CC(OC(C)=O)C(C)=C(C(OC(C)=O)C2OC(C)=O)C1(C)C (stereo not drawn) [NSC 636859, Cuspidatin C]
Mean GI50 (NCI-60 cancer panel): −4.46 log^10 molar

C[C@@H]1C[C@@H]2OC(=O)[C@]3(C)[C@H]2[C@@H](OC3(C)O)[C@]2(C)C(=O)C=C[C@@H]12 (stereo partly drawn) [NSC 19942, Tenulin]
Mean GI50 (NCI-60 cancer panel): −4.68 log^10 molar

CCCCCCC(=O)OC[n+]1ccc2c(C)c3[nH]c4ccccc4c3c(C)c2c1 [NSC 637132]
Mean GI50 (NCI-60 cancer panel): −6.09 log^10 molar

C#CCN(N=O)C(=O)NCCCC(NC(C)=O)C(=O)NCc1ccccc1 (stereo not drawn) [NSC 645583]
Mean GI50 (NCI-60 cancer panel): −4.17 log^10 molar

CNC(=S)NC(=S)N(C)C [NSC 622693]
Mean GI50 (NCI-60 cancer panel): −4.53 log^10 molar

COc1ccc2[nH]c3c(C)c4cc[n+](COC(=O)c5ccccc5)cc4c(C)c3c2c1 [NSC 632620]
Mean GI50 (NCI-60 cancer panel): −6.52 log^10 molar

CCCCC(=O)OC[n+]1ccc2c(C)c3[nH]c4ccc(OC)cc4c3c(C)c2c1.[I-] [NSC 637126]
Mean GI50 (NCI-60 cancer panel): −6.40 log^10 molar

Nc1ncnc2c1ncn2[C@@H]1C=C(CO)[C@@H](O)[C@H]1O [NSC 316458, Neplanocin A]
Mean GI50 (NCI-60 cancer panel): −5.43 log^10 molar
